Reference: US7723368B2, “Amino-5-[4-(difluoromethoxy)phenyl]-5-phenylimidazolone compounds for the inhibition of beta-secretase” (Wyeth LLC, priority 2007, dated 2010)

target: human BACE1 (Homo sapiens, UniProt P56817); assay: BACE1 fluorescent kinetic assay (cleavage of peptide substrate WABC-6); assay type: biochemical; details: Activity Table, Examples 1-108; 10 nM enzyme, 25 μM substrate WABC-6, pH 4.5, room temperature
Procedure: Evaluation of BACE1 Binding Affinity of Test Compounds
Fluorescent Kinetic Assays
Dilution and mixing steps: total reaction volume: 100 μL
100 μM substrate dilution in 1×PBS was prepared, and
Fluorescence Readings: Readings at λex 320 nm and λem 420 nm are taken every 40 sec for 30 min at room temperature and the linear slope for substrate cleavage rate (vi) determined.

human BACE1, sequence (P56817 46-501): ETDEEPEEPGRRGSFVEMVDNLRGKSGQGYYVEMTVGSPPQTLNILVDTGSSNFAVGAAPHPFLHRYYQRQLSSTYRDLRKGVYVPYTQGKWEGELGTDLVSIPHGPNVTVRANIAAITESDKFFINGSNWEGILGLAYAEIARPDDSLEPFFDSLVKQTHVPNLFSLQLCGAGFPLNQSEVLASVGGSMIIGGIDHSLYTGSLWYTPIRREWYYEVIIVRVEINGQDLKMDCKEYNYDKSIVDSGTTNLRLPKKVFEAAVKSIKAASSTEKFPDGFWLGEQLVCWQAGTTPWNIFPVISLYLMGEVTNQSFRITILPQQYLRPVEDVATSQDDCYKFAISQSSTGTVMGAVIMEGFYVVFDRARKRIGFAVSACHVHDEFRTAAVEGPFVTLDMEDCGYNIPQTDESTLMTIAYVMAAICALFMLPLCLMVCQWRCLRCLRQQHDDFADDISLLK

Row | SMILES | IC50 [nM]
1 | CN1C(=O)C(c2ccc(OC(F)F)cc2)(c2ccc(F)c(CCCC#N)c2)N=C1N (centres unmarked) [Example 14, 4-{5-[2-Amino-4-(4-difluoromethoxy-phenyl)-1-methyl-5-oxo-4,5-dihydro-1H-imidazol-4-yl]-2-fluoro-phenyl}-butyronitrile] | < 100
2 | C=CCC(F)c1cccc(C2(c3ccc(OC(F)F)cc3)N=C(N)N(C)C2=O)c1 (centres unmarked) [Example 57, 2-amino-5-[4-(difluoromethoxy)phenyl]-5-[3-(1-fluorobut-3-en-1-yl)phenyl]-3-methyl-3,5-dihydro-4H-imidazol-4-one] | 110 to 1000
3 | Cc1cc(C2(c3ccc(OC(F)F)cc3)N=C(N)N(C)C2=O)ccc1F (centres unmarked) [Example 15, 2-Amino-5-(4-difluoromethoxy-phenyl)-5-(4-fluoro-3-methyl-phenyl)-3-methyl-3,5-dihydro-imidazol-4-one] | 110 to 1000
4 | C=CCCC(F)c1cccc(C2(c3ccc(OC(F)F)cc3)N=C(N)N(C)C2=O)c1 (centres unmarked) [Example 12, 2-Amino-5-(4-difluoromethoxy-phenyl)-5-[3-(1-fluoro-pent-4-enyl)-phenyl]-3-methyl-3,5-dihydro-imidazol-4-one] | < 100
5 | COc1ccc(C2(c3ccc(OC(F)F)cc3)N=C(N)N(C)C2=O)cc1C#N (centres unmarked) [Example 16, 5-[2-Amino-4-(4-difluoromethoxy-phenyl)-1-methyl-5-oxo-4,5-dihydro-1H-imidazol-4-yl]-2-methoxy-benzonitrile] | > 1000
6 | C/C=C/c1cc(C2(c3ccc(OC(F)F)cc3)N=C(N)N(C)C2=O)ccc1F (centres unmarked) [Example 75C, 2-amino-5-[4-(difluoromethoxy)phenyl]-5-{4-fluoro-3-[(1E)-prop-1-en-1-yl]phenyl}-3-methyl-3,5-dihydro-4H-imidazol-4-one] | > 1000
7 | C=C(C)CCOc1cccc([C@@]2(c3ccc(OC(F)F)cc3)N=C(N)N(C)C2=O)c1 [Example 10G, (R)-2-amino-4-(4-(difluoromethoxy)phenyl)-1-methyl-4-(3-(3-methylbut-3-enyloxy)phenyl)-1H-imidazol-5(4H)-one] | < 100
8 | CN1C(=O)C(c2ccc(OC(F)F)cc2)(c2ccc(F)c(C#CCCCCl)c2)N=C1N (centres unmarked) [Example 20A, 2-amino-5-[3-(5-chloropent-1-yn-1-yl)-4-fluorophenyl]-5-[4-(difluoromethoxy)phenyl]-3-methyl-3,5-dihydro-4H-imidazol-4-one] | < 100
9 | CN1C(=O)[C@](c2ccc(OC(F)F)cc2)(c2cccc(C#CCCCF)c2)N=C1N [Example 19F, (5S)-2-amino-5-[4-(difluoromethoxy)phenyl]-5-[3-(5-fluoropent-1-yn-1-yl)phenyl]-3-methyl-3,5-dihydro-4H-imidazol-4-one] | > 1000
10 | C=CC#Cc1cc(C2(c3ccc(OC(F)F)cc3)N=C(N)N(C)C2=O)ccc1F (centres unmarked) [Example 87, 2-amino-4-(3-(but-3-en-1-ynyl)-4-fluorophenyl)-4-(4-(difluoromethoxy)phenyl)-1-methyl-1H-imidazol-5(4H)-one] | < 100
11 | CN1C(=O)C(c2ccc(OC(F)F)cc2)(c2cccc(NC(=O)c3ccccc3)c2)N=C1N (centres unmarked) [Example 35] | 110 to 1000
12 | CN1C(=O)C(c2ccc(OC(F)F)cc2)(c2cccc(NC3CCCC3)c2)N=C1N (centres unmarked) [Example 47] | < 100
13 | CN1C(=O)C(c2ccc(OC(F)F)cc2)(c2cccc(Cc3ccco3)c2)N=C1N (centres unmarked) [Example 88, 2-amino-4-(4-(difluoromethoxy)phenyl)-4-(3-(furan-2-ylmethyl)phenyl)-1-methyl-1H-imidazol-5(4H)-one] | 110 to 1000
14 | CCCNc1cccc(C2(c3ccc(OC(F)F)cc3)N=C(N)N(C)C2=O)c1 (centres unmarked) [Example 43] | < 100
15 | C=CC[C@H](C)Oc1cccc([C@@]2(c3ccc(OC(F)F)cc3)N=C(N)N(C)C2=O)c1 [Example 10E, (R)-2-amino-4-(4-(difluoromethoxy)phenyl)-1-methyl-4-(3-((S)-pent-4-en-2-yloxy)phenyl)-1H-imidazol-5(4H)-one] | 110 to 1000
16 | CN1C(=O)C(c2ccc(OC(F)F)cc2)(c2cccc(C#CCCCF)c2)N=C1N (centres unmarked) [Example 19D, 2-amino-5-[4-(difluoromethoxy)phenyl]-5-[3-(5-fluoropent-1-yn-1-yl)phenyl]-3-methyl-3,5-dihydro-4H-imidazol-4-one] | < 100
17 | CC=Cc1cc(C2(c3ccc(OC(F)F)cc3)N=C(N)N(C)C2=O)ccc1F (centres unmarked) [Example 75A, 2-amino-5-[4-(difluoromethoxy)phenyl]-5-(4-fluoro-3-prop-1-en-1-ylphenyl)-3-methyl-3,5-dihydro-4H-imidazol-4-one] | 110 to 1000
18 | CC(C)CNc1cccc(C2(c3ccc(OC(F)F)cc3)N=C(N)N(C)C2=O)c1 (centres unmarked) [Example 45] | < 100
19 | CN1C(=O)[C@](c2ccc(OC(F)F)cc2)(c2ccc(F)c(OCCC(F)F)c2)N=C1N [Example 93, (5S)-2-Amino-5-[4-(difluoromethoxy)phenyl]-5-[3-(3,3-difluoropropoxy)-4-fluorophenyl]-3-methyl-3,5-dihydro-4H-imidazol-4-one] | 110 to 1000
20 | CC(C)CC(=O)Nc1cccc(C2(c3ccc(OC(F)F)cc3)N=C(N)N(C)C2=O)c1 (centres unmarked) [Example 26] | < 100
21 | CN1C(=O)C(c2ccc(OC(F)F)cc2)(c2cccc(O)c2)N=C1N (centres unmarked) [Example 81, 2-Amino-5-[4-(difluoromethoxy)phenyl]-5-(3hydroxyphenyl)-3-methyl-3,5-dihydro-4H-imidazol-4-one] | 110 to 1000
22 | CN1C(=O)C(c2ccc(OC(F)F)cc2)(c2cccc(CNCc3ccco3)c2)N=C1N (centres unmarked) [Example 68, 2-amino-5-[4-(difluoromethoxy)phenyl]-5-(3-{[(2-furylmethyl)-amino]methyl}phenyl)-3-methyl-3,5-dihydro-4H-imidazol-4-one] | 110 to 1000

same assay, conditions: Examples 109-141; 10 nM enzyme, 25 μM substrate WABC-6, pH 4.5, room temperature

Row | SMILES | IC50 [nM]
23 | C=CCCCCc1cccc(C2(c3ccc(OC(F)F)cc3)N=C(N)N(C)C2=O)c1 (centres unmarked) [Example 121, 2-amino-5-[4-(difluoromethoxy)phenyl]-5-(3-hex-5-en-I-ylphenyl)-3-methyl-3,5dihydro-4H-imidazol-4-one] | < 100
24 | CCCCCCc1cccc(C2(c3ccc(OC(F)F)cc3)N=C(N)N(C)C2=O)c1 (centres unmarked) [Example 126, 2-amino-5-[4-(difluoromethoxy)phenyl]-5-(3-hexylphenyl)-3-methyl-3,5-dihydro-4Himidazol-4-one] | 110 to 1000
25 | CN1C(=O)[C@](c2ccc(OC(F)F)cc2)(c2ccc(F)c(/C=C/CCF)c2)N=C1N [Example 141, (5S)-2-amino-5-[4-(difluoromethoxy)phenyl]-5-{4-fluoro-3-[(1E)-4-fluorobut-1-en-1-yl]phenyl}-3-methyl-3,5-dihydro-4H-imidazol-4-one] | < 100
26 | C=CCCCCc1cccc(C2(c3ccc(OC(F)F)cc3)N=C(N)N(C)C2=O)c1 (centres unmarked) [Example 125, 2-amino-5-[4-(difluoromethoxy)phenyl]-5-(3-hex-5-en-I-ylphenyl)-3-methyl-3,5-dihydro-4H-imidazol-4-one] | < 100
27 | CC(C)C#Cc1cc(C2(c3ccc(OC(F)F)cc3)N=C(N)N(C)C2=O)ccc1F (centres unmarked) [Example 138, 2-amino-5-[4-(difluoromethoxy)phenyl]-5-[4-fluoro-3-(3-methylbut-1-yn-1-yl)phenyl]-3-methyl-3,5-dihydro-4H-imidazol-4-one] | < 100

test system: not given; assay: not given; details: not given

Row | SMILES | melting point [°C]
28 | CN1C(=O)C(c2ccc(OC(F)F)cc2)(c2ccc(F)c(CCCC#N)c2)N=C1N (centres unmarked) [Example 14, 4-{5-[2-Amino-4-(4-difluoromethoxy-phenyl)-1-methyl-5-oxo-4,5-dihydro-1H-imidazol-4-yl]-2-fluoro-phenyl}-butyronitrile] | 65 to 70
29 | C=CCC(F)c1cccc(C2(c3ccc(OC(F)F)cc3)N=C(N)N(C)C2=O)c1 (centres unmarked) [Example 57, 2-amino-5-[4-(difluoromethoxy)phenyl]-5-[3-(1-fluorobut-3-en-1-yl)phenyl]-3-methyl-3,5-dihydro-4H-imidazol-4-one] | 49 to 51
30 | Cc1cc(C2(c3ccc(OC(F)F)cc3)N=C(N)N(C)C2=O)ccc1F (centres unmarked) [Example 15, 2-Amino-5-(4-difluoromethoxy-phenyl)-5-(4-fluoro-3-methyl-phenyl)-3-methyl-3,5-dihydro-imidazol-4-one] | 70
31 | C=CCCC(F)c1cccc(C2(c3ccc(OC(F)F)cc3)N=C(N)N(C)C2=O)c1 (centres unmarked) [Example 12, 2-Amino-5-(4-difluoromethoxy-phenyl)-5-[3-(1-fluoro-pent-4-enyl)-phenyl]-3-methyl-3,5-dihydro-imidazol-4-one] | 50 to 55
32 | COc1ccc(C2(c3ccc(OC(F)F)cc3)N=C(N)N(C)C2=O)cc1C#N (centres unmarked) [Example 16, 5-[2-Amino-4-(4-difluoromethoxy-phenyl)-1-methyl-5-oxo-4,5-dihydro-1H-imidazol-4-yl]-2-methoxy-benzonitrile] | 104 to 105
